Non-standard residues stand in square brackets, D forms with d. βAla = NCCC(=O)O
Legend:
ROS = ROS levels in C57Bl/6 mice after LPS injection; assay type: in vivo; settings: 6 h after LPS
Experimental: C57BL/6 female mice (7-8 weeks old) were injected i.p. with the peptide or PBS on days −3, −2, −1 at a dose of 50 mg/kg or with PBS alone (6 mice in each group). On day zero all the mice were injected i.p. with 200 μg/mouse of LPS and 45 min. later they were injected i.p. with 150 mg/kg of the peptide. Another group of 3 mice served as normal untreated mice. […]

NF-κB = assay: Nuclear translocation of NF-κB in lung, zymosan-induced inflammation; assay type: in vivo, mice; settings: lung tissue, 24 hours after zymosan; i.p. dosing as Example 3; p<0.05
Experimental: Male BALB/c mice were randomly allocated into the following experimental groups:
The peptides were administered by an intraperitoneal (i.p.) route of administration as described in Example 3.
The peptides were formulated in D5W as described in Example 3. The vehicle control was D5W.
At 24 hours after administration of zymosan, animals were euthanized and assessed for inflammation by an NF-κB analysis of lung tissue.
Tissues were homogenized and nuclear extracts prepared via centrifugation. […]

Substance: N-acetyl-Cys-βAla-His-Cys-NH2 (Ac-C[βAla]HC-NH2; cysteine pairing not given here) [DY-66]
- ROS levels in platelets and RBCs compared to PBS-treated mice (in words) (ROS; 50 mg/kg i.p. days -3,-2,-1 and 150 mg/kg 45 min after LPS): significant reduction in ROS levels
- ROS level in platelets, % of the level in PBS-treated mice (ROS; p<0.005): approximately 55%
- ROS level in RBCs, % of the level in PBS-treated mice (ROS; p<0.05): approximately 75%
- inhibition of the increase in nuclear p65 translocation (NF-κB): ca. 80%
